ChEMBL document CHEMBL5096229, “A 1,2,3-Triazole Derivative of Quinazoline Exhibits Antitumor Activity by Tethering RNF168 to SQSTM1/P62” (J Med Chem, 2022)
The source made the active and inactive calls. The rule behind the calls is not given here.

What was measured:
Sequestosome-1 [1] = target: T1, Sequestosome-1 (Homo sapiens, UniProt Q13501); assay: Binding affinity to N-terminal P62 (1 to 335 residues) in human HCT-116 cells lysates; assay type: subcellular; conditions: filed as activator
HeLa [2] = assay: Cytotoxicity against human HeLa cells assessed as reduction in cell viability incubated for 72 hrs by MTS assay; assay type: functional, cell-based
A549 = assay: Cytotoxicity against human A549 cells assessed as reduction in cell viability incubated for 72 hrs by MTS assay; assay type: functional, cell-based; conditions: A549, 72 h
A-375 = assay: Cytotoxicity against human A-375 cells assessed as reduction in cell viability incubated for 72 hrs by MTS assay; assay type: functional, cell-based; conditions: A-375, 72 h
[3] = Clearance in BALB/c mouse at 10 mg/kg; assay type: ADME, organism-based; conditions: in vivo
HepG2 = assay: Cytotoxicity against human HepG2 cells assessed as reduction in cell viability incubated for 72 hrs by MTS assay; assay type: functional, cell-based; conditions: HepG2, 72 h
HeLa [4] = assay: Induction of x-ray sensitivity in human HeLa cells; assay type: functional, cell-based
HCT-116 [5] = assay: Induction of cell cycle arrest in human HCT-116 cells assessed as accumulation at G0/G1 phase at 2 uM after 24 hrs by propidium iodide-staining based flow cytometry (reference value: 58.01 +/- 1.77%); assay type: functional
[6] = AUCt in BALB/c mouse at 10 mg/kg; assay type: ADME, organism-based; parameters: dose 10 mg/kg; conditions: in vivo
MDA-MB-231 = assay: Cytotoxicity against human MDA-MB-231 cells assessed as reduction in cell viability incubated for 72 hrs by MTS assay; assay type: functional, cell-based; conditions: MDA-MB-231, 72 h
[7] = Toxicity in BALB/c nude mouse assessed as animal death 25 mg/kg, ip after 7 days; assay type: organism-based; conditions: in vivo, 168 h, time 7 day
[8] = target: T2, Androgen receptor (Homo sapiens) (UniProt P10275); assay: Inhibition of AR (unknown origin) at 10 uM
T2 sequence (whole entry): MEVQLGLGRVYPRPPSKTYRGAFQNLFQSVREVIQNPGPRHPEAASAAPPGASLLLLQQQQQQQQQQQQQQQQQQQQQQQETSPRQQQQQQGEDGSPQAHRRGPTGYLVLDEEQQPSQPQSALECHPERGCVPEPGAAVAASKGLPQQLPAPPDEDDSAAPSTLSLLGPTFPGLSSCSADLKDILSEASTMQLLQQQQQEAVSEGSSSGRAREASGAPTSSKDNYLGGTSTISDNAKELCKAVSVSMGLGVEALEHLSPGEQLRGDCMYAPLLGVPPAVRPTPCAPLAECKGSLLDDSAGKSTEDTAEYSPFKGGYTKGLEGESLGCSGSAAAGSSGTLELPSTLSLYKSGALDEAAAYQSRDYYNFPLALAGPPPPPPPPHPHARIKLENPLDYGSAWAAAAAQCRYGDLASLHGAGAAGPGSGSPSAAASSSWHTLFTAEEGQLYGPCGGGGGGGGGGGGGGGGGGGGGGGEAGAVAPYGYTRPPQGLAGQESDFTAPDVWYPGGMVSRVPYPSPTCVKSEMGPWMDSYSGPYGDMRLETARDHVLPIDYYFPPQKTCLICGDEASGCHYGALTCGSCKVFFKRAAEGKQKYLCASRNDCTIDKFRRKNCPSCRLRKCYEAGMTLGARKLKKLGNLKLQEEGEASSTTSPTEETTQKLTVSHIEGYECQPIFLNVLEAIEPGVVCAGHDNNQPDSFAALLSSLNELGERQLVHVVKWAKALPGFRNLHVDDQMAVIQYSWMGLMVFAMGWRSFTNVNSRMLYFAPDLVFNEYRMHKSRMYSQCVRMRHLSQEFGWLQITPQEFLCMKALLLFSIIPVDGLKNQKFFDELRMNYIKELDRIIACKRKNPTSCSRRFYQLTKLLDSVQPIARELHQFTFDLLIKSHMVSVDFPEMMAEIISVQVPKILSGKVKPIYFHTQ

HCT-116 [9] = assay: Induction of cell cycle arrest in human HCT-116 cells assessed as accumulation at S phase at 5 uM after 24 hrs by propidium iodide-staining based flow cytometry (reference value: 17.17 +/- 0.18%); assay type: functional
Bacteria = assay: Binding affinity to N-terminal His-tagged bacteria P62; conditions: filed as activator
MCF7 = assay: Cytotoxicity against human MCF7 cells assessed as reduction in cell viability incubated for 72 hrs by MTS assay; assay type: functional, cell-based; conditions: MCF7, 72 h
[10] = AUCt in BALB/c mouse at 5 mg/kg; assay type: ADME, organism-based; parameters: dose 5 mg/kg; conditions: in vivo
[11] = Metabolic stability in human liver microsomes assessed as half life at 0.5 uM by LC-MS analysis; assay type: ADME, Microsome
HCT-116 [12] = assay: Induction of cell cycle arrest in human HCT-116 cells assessed as accumulation at G2/M phase at 2 uM after 24 hrs by propidium iodide-staining based flow cytometry (reference value: 23.25 +/- 1.38%); assay type: functional
[13] = Cmax in BALB/c mouse at 20 mg/kg; assay type: ADME, organism-based; parameters: dose 20 mg/kg; conditions: in vivo
[14] = Half life in BALB/c mouse at 10 mg/kg; assay type: ADME, organism-based; conditions: in vivo
HCT-116 [15] = assay: Induction of cell cycle arrest in human HCT-116 cells assessed as accumulation at G0/G1 phase at 5 uM after 24 hrs by propidium iodide-staining based flow cytometry (reference value: 58.01 +/- 1.77%); assay type: functional
[16] = Cytotoxicity against human MCF-10A cells assessed as reduction in cell viability incubated for 72 hrs by MTS assay; assay type: toxicity, cell-based
HCT-116 [17] = assay: Induction of P62 to RNF168 protein-protein interaction in human HCT-116 cells lysates chromatin enriched fraction by immunoblotting assay; assay type: subcellular
[18] = Cmax in BALB/c mouse at 10 mg/kg; assay type: ADME, organism-based; parameters: dose 10 mg/kg; conditions: in vivo
HCT-116 [19] = assay: Antitumor activity against human HCT-116 cells xenografted in ip dosed BALB/c nude mouse assessed as tumor growth inhibition; assay type: functional, organism-based; conditions: dose 5.0 mg/kg, DDE = dose-dependent effect
[20] = Toxicity in BALB/c mouse assessed as animal death at less than 50 mg/kg, ip after 7 days; assay type: organism-based; conditions: in vivo, 168 h, time 7 day
[21] = Clearance in BALB/c mouse at 20 mg/kg; assay type: ADME, organism-based; conditions: in vivo
U2OS = assay: Inhibition of NHEJ-mediated double strand break repair in human U2OS cells pretreated with I-SceI for 36 hrs followed by compound addition and measured after 12 hrs; assay type: functional, cell-based; conditions: dose 0.625-2.5 µM, DDE = dose-dependent effect
[22] = Cmax in BALB/c mouse at 5 mg/kg; assay type: ADME, organism-based; parameters: dose 5 mg/kg; conditions: in vivo
[23] = target: E3 ubiquitin-protein ligase RNF168 (Homo sapiens, UniProt Q8IYW5); assay: Inhibition of RNF168 activity in human HCT-116 cells assessed as reduction in gamma-H2AX ubiquitination by immunoblotting assay; assay type: cell-based
Chain of E3 ubiquitin-protein ligase RNF168 (Q8IYW5 whole entry): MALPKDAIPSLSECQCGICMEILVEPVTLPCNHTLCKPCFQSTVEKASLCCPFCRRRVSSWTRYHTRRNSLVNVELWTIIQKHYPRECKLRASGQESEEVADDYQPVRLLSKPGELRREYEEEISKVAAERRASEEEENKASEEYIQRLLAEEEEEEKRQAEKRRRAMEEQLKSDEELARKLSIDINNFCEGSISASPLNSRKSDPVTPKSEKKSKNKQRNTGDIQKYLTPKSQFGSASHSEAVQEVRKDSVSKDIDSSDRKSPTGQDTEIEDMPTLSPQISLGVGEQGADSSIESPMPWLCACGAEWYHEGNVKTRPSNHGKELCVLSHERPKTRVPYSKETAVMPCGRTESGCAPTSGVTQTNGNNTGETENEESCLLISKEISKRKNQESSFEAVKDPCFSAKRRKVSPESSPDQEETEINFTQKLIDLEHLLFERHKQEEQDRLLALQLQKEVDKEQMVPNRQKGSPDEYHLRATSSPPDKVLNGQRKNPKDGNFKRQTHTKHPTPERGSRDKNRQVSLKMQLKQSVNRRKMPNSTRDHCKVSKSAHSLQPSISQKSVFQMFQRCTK

[24] = AUCt in BALB/c mouse at 20 mg/kg; assay type: ADME, organism-based; parameters: dose 20 mg/kg; conditions: in vivo
HCT-116 [25] = assay: Cytotoxicity against human HCT-116 cells assessed as reduction in cell viability incubated for 72 hrs by MTS assay; assay type: functional, cell-based; conditions: HCT-116, 72 h
[26] = Metabolic stability in human liver microsomes assessed as clearance at 0.5 uM by LC-MS analysis; assay type: ADME, Microsome
Sequestosome-1 [27] = target: T1, Sequestosome-1; assay: Binding affinity to N-terminal P62 LB domain (unknown origin) expressed in HEK293T cells; assay type: cell-based; conditions: filed as activator

T1 sequence (Q13501 whole entry, the tested form may be a part): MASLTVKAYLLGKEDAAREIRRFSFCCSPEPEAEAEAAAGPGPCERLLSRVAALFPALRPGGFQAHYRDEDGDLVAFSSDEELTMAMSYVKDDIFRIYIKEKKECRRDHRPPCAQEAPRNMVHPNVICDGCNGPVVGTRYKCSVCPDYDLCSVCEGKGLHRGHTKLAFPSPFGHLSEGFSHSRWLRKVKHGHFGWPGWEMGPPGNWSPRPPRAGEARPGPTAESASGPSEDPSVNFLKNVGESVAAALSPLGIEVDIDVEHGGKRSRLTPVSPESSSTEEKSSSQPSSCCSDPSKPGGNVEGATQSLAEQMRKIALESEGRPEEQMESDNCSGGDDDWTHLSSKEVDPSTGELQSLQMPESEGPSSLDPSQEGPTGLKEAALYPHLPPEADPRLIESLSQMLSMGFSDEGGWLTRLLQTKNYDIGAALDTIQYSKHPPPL

Q: What does the source list for `COc1cc(-n2cc(-c3ccc4nc(N)nc(N)c4c3)nn2)cc(OC)c1OC`?
A: Activity (Sequestosome-1 [1]): Active; IC50 (HeLa [2]): 2480 nM; IC50 (A549): 1180 nM; IC50 (A-375): 1930 nM; clearance [3]: 276 mL/min/kg; IC50 (HepG2): 19600 nM; Activity (HeLa [4]): Active; Activity (HCT-116 [5]): 52.1%; AUC(0-t) [6]: 408 ng·h/mL; IC50 (MDA-MB-231): 1170 nM; Activity [7]: Toxic; inhibition [8]: Active; Activity (HCT-116 [9]): 18.77%; Activity (Bacteria): Active; IC50 (MCF7): 2790 nM; AUC(0-t) [10]: 215 ng·h/mL; half-life at 0.5 µM [11]: 7.17 h; Activity (HCT-116 [12]): 30.79%; Cmax [13]: 52.2 ng/mL; half-life [14]: 31 h; Activity (HCT-116 [15]): 50.82%; IC50 at 72 h [16]: 6980 nM; Activity (HCT-116 [17]): Active; Cmax [18]: 39.9 ng/mL; Activity (HCT-116 [19]): Dde; Activity [20]: Non-Toxic; clearance [21]: 243 mL/min/kg; inhibition (U2OS): Dde; Cmax [22]: 26.1 ng/mL; inhibition [23]: Active; AUC(0-t) [24]: 1000 ng·h/mL; IC50 (HCT-116 [25]): 360 nM; CLH [26]: 1.87 mL/min; Activity (Sequestosome-1 [27]): Active
